Assay results reported in patent US20230373985A1 (Origenis Gmbh, priority 2020, published 2023).

Columns and labels:
[1] = molecular target: T1, wt human TYK2, catalytic site (Homo sapiens, UniProt P29597); experiment: HTRF KinEASE assay, TYK2; assay type: biochemical; conditions: 1 μM ATP; read-out: IC50, Activity Toward TYK2
T1 construct: wt human TYK2, catalytic site; purchased SignalChem
T1 sequence (P29597 897-1176 limits assumed): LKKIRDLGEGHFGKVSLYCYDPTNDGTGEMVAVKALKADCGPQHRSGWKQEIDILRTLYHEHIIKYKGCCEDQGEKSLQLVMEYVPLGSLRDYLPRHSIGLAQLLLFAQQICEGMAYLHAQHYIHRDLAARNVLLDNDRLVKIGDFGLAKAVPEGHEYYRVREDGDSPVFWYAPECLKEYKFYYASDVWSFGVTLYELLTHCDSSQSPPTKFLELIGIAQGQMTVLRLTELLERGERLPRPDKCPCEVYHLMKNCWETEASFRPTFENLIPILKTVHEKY
How it was run: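 HTRF KinEASE-TK readout with 1 μM biotinylated TK substrate in 1× kinase buffer, ≥30 min at room temperature, then antibody/streptavidin-XL665 detection for 60 min. TYK2 at 2 nM with 1 μM ATP; JAK2 at 1 nM with 100 μM ATP. Analysis uses emission ratios.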

[2] = molecular target: T2, wt human JAK2, catalytic site (Homo sapiens, UniProt O60674); experiment: HTRF KinEASE assay, JAK2; assay type: biochemical; conditions: assay format not given (Z'-LYTE or HTRF KinEASE); read-out: IC50, Activity Toward JAK2
T2 construct: wt human JAK2, catalytic site; purchased SignalChem
T2 sequence (O60674 849-1124 limits assumed): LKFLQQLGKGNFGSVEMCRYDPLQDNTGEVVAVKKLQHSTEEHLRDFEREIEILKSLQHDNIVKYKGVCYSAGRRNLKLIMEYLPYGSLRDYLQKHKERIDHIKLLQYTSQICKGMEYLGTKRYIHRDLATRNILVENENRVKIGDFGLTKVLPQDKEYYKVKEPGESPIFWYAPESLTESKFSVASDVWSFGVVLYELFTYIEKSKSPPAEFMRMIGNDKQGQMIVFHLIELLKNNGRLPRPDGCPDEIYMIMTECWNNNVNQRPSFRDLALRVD
Description: Basic protocol for HTRF KinEASE assay (Cisbio/FRA) inhibitor studies involved two steps: • Enzymatic step: Addition of 4 μL of test compound in corresponding DMSO dilutions, 4 μL of kinase/substrate mixture, 2 μL of ATP into 384 well small volume plates. Incubation for at least 30 minutes at room temperature. • Detection step: Addition of 5 μL antibody and 5 μL streptavidin-XL665, read plate after 60 minutes. Data analysis of emission ratios according KinEASE assay protocol.
(§1) Kinase and assay components were adjusted to final concentrations according to kit protocol. For TYK2: 2 nM wt human TYK2, catalytic site (SignalChem/CAN), 1 μM HTRF KinEASE-TK Substrate-biotin, 1 μM ATP in 1× Kinase Buffer. For JAK1: 4 nM wt human JAK1, catalytic site (ThermoFisher/USA), 1 μM HTRF KinEASE-TK Substrate-biotin, 2.5 μM ATP in 1× Kinase Buffer. For JAK2: 1 nM wt human JAK2, catalytic site (SignalChem/CAN), 1 μM HTRF KinEASE-TK Substrate-biotin, 100 μM ATP in 1× Kinase Buffer.
as §1

[3] = molecular target: T3, wt human LRRK2, catalytic site (Homo sapiens, UniProt Q5S007); experiment: TR-FRET LanthaScreen Eu Kinase Binding Assay, LRRK2 wt; conditions: one range stated for wt and G2019, read-out: IC50, Activity Toward LRRK2(Wt)
T3 construct: 5 nM wt human LRRK2, catalytic site; purchased ThermoFisher
T3 sequence (Q5S007 970-2527 limits assumed): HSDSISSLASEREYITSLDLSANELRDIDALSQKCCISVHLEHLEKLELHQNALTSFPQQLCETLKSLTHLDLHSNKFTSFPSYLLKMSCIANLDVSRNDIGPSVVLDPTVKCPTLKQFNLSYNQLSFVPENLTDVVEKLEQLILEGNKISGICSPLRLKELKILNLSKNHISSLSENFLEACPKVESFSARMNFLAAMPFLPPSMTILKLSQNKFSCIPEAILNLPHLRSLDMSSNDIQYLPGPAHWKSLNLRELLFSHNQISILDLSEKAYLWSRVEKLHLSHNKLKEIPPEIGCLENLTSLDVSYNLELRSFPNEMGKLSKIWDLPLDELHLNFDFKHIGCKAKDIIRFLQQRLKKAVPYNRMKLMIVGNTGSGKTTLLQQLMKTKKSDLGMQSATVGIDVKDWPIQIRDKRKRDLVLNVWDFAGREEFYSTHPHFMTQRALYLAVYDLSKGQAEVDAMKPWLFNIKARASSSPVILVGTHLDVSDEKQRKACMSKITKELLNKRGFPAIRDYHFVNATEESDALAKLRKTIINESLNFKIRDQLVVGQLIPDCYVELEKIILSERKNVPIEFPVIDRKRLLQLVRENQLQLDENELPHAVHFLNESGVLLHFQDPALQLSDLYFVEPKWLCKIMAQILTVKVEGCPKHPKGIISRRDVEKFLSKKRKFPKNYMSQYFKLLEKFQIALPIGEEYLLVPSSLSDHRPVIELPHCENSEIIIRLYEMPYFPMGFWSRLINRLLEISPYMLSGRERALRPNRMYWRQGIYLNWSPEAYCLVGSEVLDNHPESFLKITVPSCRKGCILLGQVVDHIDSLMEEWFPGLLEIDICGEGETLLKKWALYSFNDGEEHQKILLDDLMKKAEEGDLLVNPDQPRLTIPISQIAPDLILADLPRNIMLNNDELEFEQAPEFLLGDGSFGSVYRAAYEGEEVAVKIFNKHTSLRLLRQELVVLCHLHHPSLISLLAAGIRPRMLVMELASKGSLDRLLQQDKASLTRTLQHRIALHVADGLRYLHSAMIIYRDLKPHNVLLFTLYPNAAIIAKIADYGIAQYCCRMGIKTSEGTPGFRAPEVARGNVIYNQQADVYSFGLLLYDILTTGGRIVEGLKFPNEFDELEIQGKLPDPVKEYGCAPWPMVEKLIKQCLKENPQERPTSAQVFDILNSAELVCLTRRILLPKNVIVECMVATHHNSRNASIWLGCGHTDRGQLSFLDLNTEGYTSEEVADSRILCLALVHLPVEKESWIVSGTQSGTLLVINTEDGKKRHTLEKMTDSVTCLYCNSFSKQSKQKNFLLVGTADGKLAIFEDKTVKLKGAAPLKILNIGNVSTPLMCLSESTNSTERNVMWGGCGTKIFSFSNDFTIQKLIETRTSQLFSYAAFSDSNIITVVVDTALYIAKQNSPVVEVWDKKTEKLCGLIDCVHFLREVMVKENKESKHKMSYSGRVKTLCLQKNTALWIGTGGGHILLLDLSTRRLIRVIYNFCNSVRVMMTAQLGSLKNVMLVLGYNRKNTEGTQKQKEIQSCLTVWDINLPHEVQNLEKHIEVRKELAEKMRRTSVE
How it was run: (§2)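 Tracer-displacement binding: compound mixed with kinase/Eu-antibody and Kinase Tracer 236 in 1× Kinase Buffer A, 1 h at room temperature, then TR-FRET emission ratio read. LRRK2 (wt or G2019S) 5 nM with 2 nM Eu-anti-GST, 10 nM tracer; NUAK1 8 nM with 2 nM Eu-anti-His, 5 nM tracer.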

[4] = molecular target: T4, wt human NUAK1, full length (Homo sapiens, UniProt O60285); experiment: TR-FRET LanthaScreen Eu Kinase Binding Assay, NUAK1; conditions: read-out: IC50, Activity Toward NUAK1
T4 construct: 8 nM wt human NUAK1, full length (ThermoFisher/USA); purchased ThermoFisher
T4 sequence (O60285 1-661): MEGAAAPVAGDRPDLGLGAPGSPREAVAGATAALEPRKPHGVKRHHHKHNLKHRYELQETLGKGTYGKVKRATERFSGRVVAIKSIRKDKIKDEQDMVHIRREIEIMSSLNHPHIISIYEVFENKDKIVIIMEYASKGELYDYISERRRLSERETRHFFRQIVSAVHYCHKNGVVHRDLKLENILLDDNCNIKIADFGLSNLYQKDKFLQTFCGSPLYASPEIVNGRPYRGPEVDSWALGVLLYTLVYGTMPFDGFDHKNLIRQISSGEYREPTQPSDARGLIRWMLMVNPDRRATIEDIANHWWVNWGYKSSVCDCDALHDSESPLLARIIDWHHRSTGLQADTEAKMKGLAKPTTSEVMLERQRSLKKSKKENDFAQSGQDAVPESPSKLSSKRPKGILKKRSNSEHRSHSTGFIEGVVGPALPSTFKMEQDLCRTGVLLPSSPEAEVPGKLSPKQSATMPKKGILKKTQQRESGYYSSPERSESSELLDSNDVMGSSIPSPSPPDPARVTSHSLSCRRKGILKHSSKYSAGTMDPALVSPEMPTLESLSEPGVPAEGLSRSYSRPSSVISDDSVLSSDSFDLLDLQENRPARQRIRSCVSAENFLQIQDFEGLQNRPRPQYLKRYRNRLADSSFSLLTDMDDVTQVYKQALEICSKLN
How it was run: as §2

[5] = molecular target: T5, G2019S human LRRK2, catalytic site (Homo sapiens, UniProt Q5S007, G2019S); experiment: TR-FRET LanthaScreen Eu Kinase Binding Assay, LRRK2 G2019S; conditions: LRRK2(G2019); one range stated for wt and G2019; read-out: IC50, Activity Toward LRRK2(G2019)
T5 construct: G2019S human LRRK2, catalytic site; purchased ThermoFisher
T5 sequence (Q5S007 970-2527 G2019S limits assumed): as the sequence (Q5S007 970-2527 limits assumed) above, with G1050S counted along it
How it was run: as §2

[6] = molecular target: T6, wt human JAK1, catalytic site (Homo sapiens, UniProt P23458); experiment: HTRF KinEASE assay, JAK1; assay type: biochemical; conditions: 2.5 μM ATP; read-out: IC50, Activity Toward JAK1
T6 construct: wt human JAK1, catalytic site; purchased ThermoFisher
T6 sequence (P23458 875-1153 limits assumed): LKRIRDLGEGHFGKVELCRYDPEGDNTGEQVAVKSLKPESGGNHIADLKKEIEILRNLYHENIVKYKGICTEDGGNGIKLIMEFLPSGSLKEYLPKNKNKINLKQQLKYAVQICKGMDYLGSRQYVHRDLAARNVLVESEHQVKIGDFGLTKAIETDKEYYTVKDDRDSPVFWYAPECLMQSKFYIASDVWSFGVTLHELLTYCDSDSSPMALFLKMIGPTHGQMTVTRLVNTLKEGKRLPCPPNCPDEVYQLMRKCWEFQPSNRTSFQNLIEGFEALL
How it was run: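 Two-step HTRF KinEASE assay: compound, kinase/biotinylated TK substrate and ATP were incubated at least 30 min at room temperature. Antibody plus streptavidin-XL665 was then added and plates were read after 60 min. Inhibition was derived from emission ratios according to the kit protocol.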

| SMILES | IC50 [1] [µM] | IC50 [2] [µM] | IC50 [3] [µM] | IC50 [4] [µM] | IC50 [5] [µM] | IC50 [6] [µM] |
| --- | --- | --- | --- | --- | --- | --- |
| N#Cc1cccc(F)c1-n1cc(Nc2ccc(C(=O)N3CCS(=O)(=O)CC3)cc2)c(C(N)=O)n1 [compound 452, 1-(2-cyano-6-fluorophenyl)-4-((4-(1,1-dioxidothiomorpholine-4-carbonyl)phenyl)amino)-1H-pyrazole-3-carboxamide] | < 0.01 | 0.1 to 1 | 0.1 to 1 | 0.1 to 1 | 0.1 to 1 | < 0.01 |
| N#Cc1cccc(F)c1-n1cc(Nc2ccc(C(=O)N3CCOCC3)cc2)c(C(N)=O)n1 [compound 454, 1-(2-cyano-6-fluorophenyl)-4-((4-(morpholine-4-carbonyl)phenyl)amino)-1H-pyrazole-3-carboxamide] | < 0.01 | 0.1 to 1 | 0.1 to 1 | 0.1 to 1 | 0.1 to 1 | 0.01 to 0.1 |
| CC(C)n1ncnc1-c1ccc(Nc2cn(-c3c(F)cccc3Cl)nc2C(N)=O)cc1 [compound 211, 1-(2-chloro-6-fluorophenyl)-4-((4-(1-isopropyl-1H-1,2,4-triazol-5-yl)phenyl)amino)-1H-pyrazole-3-carboxamide] | 0.01 to 0.1 | 0.1 to 1 | 0.01 to 0.1 | 0.1 to 1 | 0.01 to 0.1 | 0.1 to 1 |
| Cn1nnnc1-c1ccc(Nc2nn(-c3c(Cl)cccc3Cl)nc2C(N)=O)cc1 [compound 104] | < 0.01 | 0.1 to 1 |  | 0.1 to 1 |  | 0.01 to 0.1 |
| NC(=O)c1nn(-c2c(F)cccc2F)cc1Nc1ccc(C(=O)N2CCOCC2)cc1 [compound 12, 1-(2,6-difluorophenyl)-4-((4-(morpholine-4-carbonyl)phenyl)amino)-1H-pyrazole-3-carboxamide] | 0.01 to 0.1 | 0.1 to 1 | 0.01 to 0.1 | 0.1 to 1 | 0.01 to 0.1 | 0.1 to 1 |
| CN1CCN(C(=O)c2ccc(Nc3cn(-c4c(F)cccc4Cl)nc3C(N)=O)cc2)CC1 [compound 36, 1-(2-chloro-6-fluorophenyl)-4-((4-(4-methylpiperazine-1-carbonyl)phenyl)amino)-1H-pyrazole-3-carboxamide] | < 0.01 | 0.1 to 1 | 0.01 to 0.1 | 0.1 to 1 | 0.01 to 0.1 | 0.01 to 0.1 |
| CCn1cnnc1-c1ccc(Nc2cn(-c3c(F)cccc3Cl)nc2C(N)=O)cc1 [compound 207, 1-(2-chloro-6-fluorophenyl)-4-((4-(4-ethyl-4H-1,2,4-triazol-3-yl)phenyl)amino)-1H-pyrazole-3-carboxamide] | < 0.01 | 0.1 to 1 | 0.1 to 1 | 0.1 to 1 | 0.1 to 1 | 0.01 to 0.1 |
| NC(=O)c1nn(-c2c(Cl)cccc2Cl)cc1Nc1ccc(-c2nnc3ccccn23)cc1 [compound 333, 4-((4-([1,2,4]triazolo[4,3-a]pyridin-3-yl)phenyl)amino)-1-(2,6-dichlorophenyl)-1H-pyrazole-3-carboxamide] | < 0.01 | 0.1 to 1 | 0.1 to 1 | 0.1 to 1 | 0.1 to 1 | 0.01 to 0.1 |
| NC(=O)c1nn(-c2c(F)cccc2Cl)cc1Nc1ccc(-c2nnc3n2CCOC3)cc1 [compound 62, 1-(2-chloro-6-fluorophenyl)-4-((4-(6,8-dihydro-5H-[1,2,4]triazolo[3,4-c][1,4]oxazin-3-yl)phenyl)amino)-1H-pyrazole-3-carboxamide] | < 0.01 | 0.1 to 1 | 0.01 to 0.1 | 0.1 to 1 | 0.01 to 0.1 | 0.1 to 1 |
| NC(=O)c1nn(-c2c(F)cccc2Cl)cc1Nc1ccc(C(=O)N2CCOCC2)cc1 [compound 22, 1-(2-chloro-6-fluorophenyl)-4-((4-(morpholine-4-carbonyl)phenyl)amino)-1H-pyrazole-3-carboxamide] | < 0.01 | 0.1 to 1 | 0.1 to 1 | 0.01 to 0.1 | 0.1 to 1 | 0.01 to 0.1 |
| NC(=O)c1nn(-c2c(F)cccc2Cl)cc1Nc1ccc(-c2nnc3n2CCCC3)cc1 [compound 58, 1-(2-chloro-6-fluorophenyl)-4-((4-(5,6,7,8-tetrahydro-[1,2,4]triazolo[4,3-a]pyridin-3-yl)phenyl)amino)-1H-pyrazole-3-carboxamide] | < 0.01 | 0.1 to 1 | 0.01 to 0.1 | 0.1 to 1 | 0.01 to 0.1 | 0.01 to 0.1 |
| CN1CCN(C(=O)c2ccc(Nc3nn(-c4c(Cl)cccc4Cl)nc3C(N)=O)cc2)CC1 [compound 102, 2-(2,6-Dichloro-phenyl)-5-[4-(4-methyl-piperazine-1-carbonyl)-phenylamino]-2H-[1,2,3]triazole-4-carboxylic acid amide] | < 0.01 | 0.1 to 1 |  | 0.1 to 1 |  | < 0.01 |
| Cn1cnnc1-c1ccc(Nc2cn(-c3c(Cl)cccc3Cl)nc2C(N)=O)cc1 [compound 88, 1-(2,6-dichlorophenyl)-4-((4-(4-methyl-4H-1,2,4-triazol-3-yl)phenyl)amino)-1H-pyrazole-3-carboxamide] | < 0.01 | 0.1 to 1 | 0.1 to 1 | 0.1 to 1 | 0.1 to 1 | 0.01 to 0.1 |
| NC(=O)c1nn(-c2c(Cl)cccc2Cl)nc1Nc1ccc(C(=O)N2CCOCC2)cc1 [compound 101, 2-(2,6-Dichloro-phenyl)-5-[4-(morpholine-4-carbonyl)-phenylamino]-2H-[1,2,3]triazole-4-carboxylic acid amide] | < 0.01 | 0.1 to 1 |  | 0.1 to 1 |  | < 0.01 |
| CN(C)[C@H]1CCN(C(=O)c2ccc(Nc3nn(-c4c(Cl)cccc4Cl)nc3C(N)=O)cc2)C1 [compound 105, 2-(2,6-Dichloro-phenyl)-5-[4-((S)-3-dimethylamino-pyrrolidine-1-carbonyl)-phenylamino]-2H-[1,2,3]triazole-4-carboxylic acid amide] | < 0.01 | 0.1 to 1 |  | 0.1 to 1 |  | < 0.01 |
| NC(=O)c1nn(-c2c(Cl)cccc2Cl)nc1Nc1ccc(-c2nnn[nH]2)cc1 [compound 103, 2-(2,6-Dichloro-phenyl)-5-[4-(1H-tetrazol-5-yl)-phenylamino]-2H-[1,2,3]triazole-4-carboxylic acid amide] | 0.01 to 0.1 | 0.1 to 1 |  | 0.1 to 1 |  | 0.01 to 0.1 |
